The SangsterLogP compilation

Assay: method code SF-AS, from PMID: 4480356

**Q.** Which logP does the source give for `Oc1ccc(Cc2ccc(O)cc2)cc1` here?
**A.** 2.91

**Q.** For `Oc1ccc(C(c2ccc(O)cc2)c2ccccn2)cc1`, which logP is on record?
**A.** 2.84

**Q.** With `Oc1ccc(C(c2ccc(O)cc2)c2cccnc2)cc1` as the compound, how does the logP read?
**A.** 3.13

**Q.** For `OCc1ccccc1C(c1ccc(O)cc1)c1ccc(O)cc1`, which logP is on record?
**A.** 3.27

**Q.** For `Cc1cnc(C(c2ccc(O)cc2)c2ccc(O)cc2)s1`, which logP is on record?
**A.** 3.34

**Q.** With `Nc1ccccc1C(c1ccc(O)cc1)c1ccc(O)cc1` as the compound, how does the logP read?
**A.** 3.16

**Q.** With `Cc1cnc(Cc2ccc(O)cc2)s1` as the compound, how does the logP read?
**A.** 2.62

**Q.** With `Oc1ccc(C(c2ccncc2)c2ccc(O)cc2)cc1` as the compound, how does the logP read?
**A.** 3.24

**Q.** Which logP does the source give for `Oc1ccc(C(c2ccc(O)cc2)c2nccs2)cc1` here?
**A.** 2.96

**Q.** For `O=C(O)c1ccccc1C(c1ccc(O)cc1)c1ccc(O)cc1`, which logP is on record?
**A.** 2.61
